# Columns and labels:
# [1] = tested on: bean aphid (Aphis fabae Scop.); assay: whole plant or invertebrate; settings: foliar, read-out: Biological Activity in LD50's: Aphid
# Experimental: (§1) The thus-prepared stock suspension contained 0.5 percent by weight of compound. The test concentrations in parts per million by weight employed in the tests described hereinbelow were obtained by appropriate dilutions of the stock suspension with water. The test procedures were as follows:
# Adults and nymphal stages of the bean aphid (Aphis fabae Scop.) reared on potted dwarf nasturtium plants at 65°-70° F. and 50-70 percent relative humidity, consistuted with test insects. For testing purposes, the number of aphids per pot was standardized to 100-150 by trimming plants containing excess aphids.
# The potted plants (one pot per compound tested) infested with 100-150 aphids, were placed on a revolving turntable and sprayed with 100-110 milliliters of test compound formulation by use of a DeVilbiss spray gun set at 40 psig. air pressure. This application, which lasted 25 seconds, was sufficient to wet the plants to run-off. As a control, 100-110 milliliters of a water-acetone-emulsifier solution containing no test compound were also sprayed on infested plants. […] Temperature and humidity in the test room during the 24 hour holding period were 65°-70° F. and 50-70 percent, respectively. Aphids which fell onto the paper and were unable to remain standing after being uprighted were considered dead. Aphids remaining on the plants were observed closely for movement and those which were unable to move the length of the body upon stimulation by prodding were considered dead. Percent mortality was recorded for various concentration levels.
# (§2) In these tests the pesticidal activity of the compounds at the indicated dosage rate against aphid, mite, Southern Armyworm (SA), Mexican Bean Beetle (MBB), and house fly was rated as follows:
# (§3) Several of the unsymmetrical bis-carbamoyl sulfide compounds of this invention were tested against related known compounds.
# [2] = tested on: two-spotted mite (Tetranychus urticae Koch); assay: whole plant or invertebrate; settings: foliar, read-out: Biological Activity in LD50's: Mite
# Experimental: as §1
# Adults and nymphal stage of the two-spotted mite (Tetranychus urticae Koch), reared on Tendergreen bean plants at a temperature of 80±5° F. and at a relative humidity of 50±5 percent, were the test organisms. Infested leaves from a stock culture were placed on the primary leaves of two bean plants six to eight inches in height, growing in a two-and-a-half inch clay pot. 150-200 Mites, a sufficient number for testing, transferred from the excised leaves to the fresh plants in a period of twenty-four hours. Following the twenty-four hour transfer period, the excised leaves were removed from the infested plants. […] The potted plants (one pot per compound) were placed on a revolving turntable and sprayed with 100-110 milliliters of test compound formulation by use of a DeVilbiss spray gun at 40 psig. air pressure. This application, which lasted 25 seconds, was sufficient to wet the plants to run-off. As a control, 100-110 milliliters of a water solution containing acetone and emulsifier in the same concentrations as the test compound formulation, but containing no test compound, were also sprayed on infested plants. The sprayed plants were held at a temperature of 80±5° F. and a 50±5 percent relative humidity for six days, after which a mortality count of motile forms was made. Microscopic examination for motile forms was made on the leaves of the test plants. Any individual which was capable of locomotion upon prodding was considered living.
# as §2, §3
# [3] = tested on: southern armyworm (Spodopera eridania, (Cram.)); assay: whole plant or invertebrate; settings: Spodoptera eridania, read-out: Biological Activity in LD50's: Southern Armyworm
# Experimental: as §1
# Larvae of the southern armyworm (Spodopera eridania, (Cram.)), reared on Tendergreen bean plants at a temperature of 80±5° F. and a relative humidity of 50±5 percent, constituted the test insects.
# Potted Tendergreen bean plants of standard height and age were placed on a revolving turntable and sprayed with 100-110 milliliters of test compound formulation by use of a DeVilbiss spray gun set at 10 psig air pressure. This application, which lasted 25 seconds, was sufficient to wet plants to run-off. As a control, 100-110 milliliters of a water-acetone-emulsifier solution containing no test compound were also sprayed on infested plants. When dry, the paired leaves were separated and each one was placed in a 9 centimeter Petri dish lined with moistened filter paper. Five randomly selected larvae were introduced into each dish and the dishes were closed. The closed dishes were labeled and held at 80°-85° F. for three days. Although the larvae could easily consume the whole leaf within twenty-four hours, no more food was added. Larvae which were unable to move the length of the body, even upon stimulation by prodding, were considered dead. Percent mortality was recorded for various concentration levels.
# as §2, §3
# [4] = tested on: Mexican bean beetle (Epilachna varivestis, Muls.); assay: whole plant or invertebrate; settings: read-out: Biological Activity in LD50's: MBB
# Experimental: as §1
# Fourth instar larvae of the Mexican bean beetle (Epilachna varivestis, Muls.), reared on Tendergreen bean plants at a temperature of 80±5° F. and 50±5 percent relative humidity, were the test insects.
# Potted Tendergreen bean plants of standard height and age were placed on a revolving turntable and sprayed with 100-110 milliliters of test compound formulation by use of a DeVilbiss strapy gun set at 10 psig air pressure. This application, which lasted 25 seconds, was sufficient to wet plants to run-off. As a control, 100-110 milliliters of a water-acetone-emulsifier solution containing no test compound were also strayed on infested plants. When dry, the paired leaves were separated and each was placed in a 9 centimeter Petri dish lined with moistened filter paper. Five randomly selected larvae were introduced into each dish, and the dishes were closed. The closed dishes were labeled and held at a temperature of 80±5° F. for three days. Although the larvae could easily consume the leaf within 24 to 48 hours, no more food was added. Larvae which were unable to move the length of the body, even upon stimulation, were considered dead.
# as §2, §3
# [5] = tested on: house flies (Musca domestica, L.); assay: whole plant or invertebrate; settings: read-out: Biological Activity in LD50's: Housefly
# Description: as §1
# […] transferred to a cage consisting of a standard food strainer about five inches in diameter which was inverted over a wrapping-paper-covered surface. […] Ten milliliters of the test formulation were added to a souffle cup containing a one-inch square of an absorbent cotton pad. This bait cup was introduced and centered on the blotting paper under the food strainer prior to admitting the anesthetized flies. The caged flies were allowed to feed on the bait for twenty-four hours, at a temperature of 80±5° F. and the relative humidity of 50±5 percent.
# as §2, §3
# [6] = tested on: root-knot nematode, Meloidogyne incognita var. acrita; assay: Nematocide Test; also: key: 1: severe galling, equal to untreated plants; 2: moderate galling; 3: light galling; 4: very light galling; 5: no galling, perfect control; type: in vivo; settings: 3.33 m.g. per jar; cucumber, approximately 3 weeks
# Experimental: The test organism used was the infective migratory larvae of the root-knot nematode, Meloidogyne incognita var. acrita, reared in the greenhouse on roots of cucumber plants. Infected plants were removed from the culture, and the roots are chopped very finely. A small amount of this inoculum was added to a pint jar containing approximately 180 cc. of soil. The jars were capped and incubated for one week at room temperature. During this period eggs of the nematode were hatched, and the larval forms migrated into the soil.
# Ten ml. of the test formulation were added to each of the two jars for each dosage tested. Following the addition of chemical, the jars were capped, and the contents thoroughly mixed on a ball mill for 5 minutes.
# The test compounds were formulated by a standard procedure of solution in acetone addition of an emulsifier, and dilution with water. Primary screening tests were conducted at 3.33 m.g. of the test compound per jar.
# The jars were left capped at room temperature for a period of 48 hours, and the contents then transferred to 3 inch pots. Subsequently, the pots were seeded to cucumber as an indicator crop and placed in the greenhouse where they were cared for in the normal fashion for approximately 3 weeks.
# The cucumber plants were then taken from the pots, the soil removed from the roots; and the amount of galling visually rated.
# In the test for activity against nematodes (nem) activity was rated as follows: […]
# rat = assay: Mammalian Toxicity, peroral toxicity to rat; type: in vivo
# Experimental: Certain compounds were also evaluated to determine their peroral toxicity to mammals by conventional methods. The representative animal selected for this experiment was the rat.
# Soy = assay: Phytotoxicity Test, soy; settings: 2500 ppm spray, ten days
# Experimental: (§4) Experiments were also conducted to determine the phytotoxicity of representative compounds with respect to healthy fresh plants. […] The test plants were sprayed in accordance with the procedure described above for the Mite Foliage Spray Test so as to deliver approximately 100 milliliters of test solution to the leaves of each plant tested. The sprayed plants and controls were set aside for approximately one hour to allow the foliage to dry and were then placed in the greenhouse. After ten days the plants were visually inspected to determine the extent of foliage injury. A rating of 1 indicates no perceptible injury; 5 indicates the plant was dead and ratings of 2, 3 and 4 indicate intermediate degrees of injury based upon the number and extent to which leaves were injured.
# Bean = assay: Phytotoxicity Test, bean; settings: 2500 ppm spray, ten days
# Experimental: as §4
# Corn = assay: Phytotoxicity Test, corn; settings: 2500 ppm spray, ten days
# Experimental: as §4
# Tom = assay: Phytotoxicity Test, tomato; settings: 2500 ppm spray, ten days
# Experimental: as §4
# Cotton = assay: Phytotoxicity Test, cotton; settings: 2500 ppm spray, ten days
# Experimental: as §4
Molecule,LC50 [1] [µg/mL],LC50 [2] [µg/mL],LC50 [3] [µg/mL],LC50 [4] [µg/mL],LC50 [5] [µg/mL],"Biological Activity: Nem (nematode, galling rating) [6]",A.O. Rat LD50 (rat) [Mg/Kg],Phytotoxicity: Soy (Soy),Phytotoxicity: Bean (Bean),Phytotoxicity: Corn (Corn),Phytotoxicity: Tom (Tom),Phytotoxicity: Cotton (Cotton)
CN(SN(C)C(=O)Oc1cccc2ccccc12)C(=O)Oc1cccc2ccccc12,> 500,> 500,80,6,> 500,–,–,–,–,–,–,–
CN(SN(C)C(=O)Oc1ccc(C(C)(C)C)cc1)C(=O)Oc1ccc(C(C)(C)C)cc1,> 500,> 500,> 500,> 500,> 500,–,–,–,–,–,–,–
CSC(C)=NOC(=O)N(C)SN(C)C(=O)Oc1ccc(C(C)(C)C)cc1 [drawing 80],40,> 500,7,9,35,–,–,–,–,–,–,–
CN(SN(C)C(=O)ON=C1SC(C)(C)C(=O)N1C)C(=O)ON=C1CSCCS1 [drawing 88],> 500,6,29,22,2,–,–,–,–,–,–,–
CNC(=O)ON=C1SC(C)(C)C(=O)N1C,160,280,30,6,25,–,–,–,–,–,–,–
CSC(C)=NOC(=O)N(C)SN(C)C(=O)Oc1cccc2ccccc12 [drawing 86],8,500,6,3,24,–,–,–,–,–,–,–
CNC(=O)Oc1ccc(C(C)(C)C)cc1,> 500,> 500,> 500,> 500,> 500,–,–,–,–,–,–,–
CSC(C)=NOC(=O)N(C)SN(C)C(=O)Oc1cccc(C(C)C)c1 [drawing 83],50,500,9,9,15,–,–,–,–,–,–,–
CC(C)c1cccc(OC(=O)N(C)SN(C)C(=O)Oc2cccc(C(C)C)c2)c1,70,> 500,62,11,150,–,–,–,–,–,–,–
N-[1-Methylthioacetaldehyde O-(N-methylcarbamoyl)oxime]N-[3-(and 4)-isopropylphenyl-(N-methylcarbamoyloxy)]sulfide [XVII],–,–,–,–,–,4,126.0,1,1,1,1,1
